Experimental data reported in patent publication US7419950B2, “Methods of inhibiting ectopic calcification” (University of Washington, priority 1998, dated 2008).

Legend:
[1] = tested on: human vascular smooth muscle cells (HSMC); assay: Calcium deposition by human vascular smooth muscle cells in high-phosphate calcification medium; type: cell-based; settings: for calcium deposition into HSMC matrix (in words): high-phosphate calcification medium
Protocol: (§1) Calcification was assessed by a modification of the method described by Jono et al., Arterioscler. Thromb. Vasc. Biol. 17:1135-1142 (1997) which is incorporated herein by reference. Briefly, the cultures were decalcified with 0.6 N HCl for 24 hours. The calcium content of the HCl supernatant was determined calorimetrically by the o-cresolphthalein complexone method (Calcium Kit, Sigma). After decalcification, the cultures were washed with phosphate-buffered saline (PBS) and solubilized with 0.1 N NaOH/0.1% sodium dodecyl sulfate(SDS). Total protein content was measured with a Bio-Rad Protein Assay Kit (Bio-Rad). The calcium content of the cell layer was normalized to protein content. Phosphorus and calcium concentrations in the culture medium were measured by the phosphomolybdate complex method (Phosphorus Kit, Sigma) and the o-cresolphthalein complexone method (Calcium Kit, Sigma), respectively. Values were expressed as the mean +/− SEM, n=3.
HSMC were routinely subcultured in growth medium. At confluence, cells were switched to calcification medium (DMEM containing 15% FBS and 1 mM sodium pyruvate in the presence of 2 mM inorganic phosphate supplemented with 100 U/ml penicillin and 100 μg/ml of streptomycin) for up to 14 days. The medium was replaced with fresh medium every 2 days. For time-course experiments, the first day of culture in calcification medium was defined as day 0. Calcium deposition was quantified and assessed histochemically and cytochemically as described above in Example I.
Osteopontin proteins and functional fragments were assayed for their ability to inhibit ectopic calcification using the HSMC calcification system described in Example III. The osteopontin proteins include full-length human recombinant osteopontin as well as recombinant N-terminal and C-terminal human osteopontin fragments similar to those that would be formed following thrombin cleavage of the native protein, as described by Smith et al., supra (1996). Two N-terminal fragments were used, 10N and 30N, which refer to two differ splice variants of osteopontin. The 30N splice variant contains an additional 14 amino acids, […] (SEQ ID NO: 7), which correspond to exon 5 (amino acids 59-72). The ION fragment contains amino acids 17-58 and 73-160 of native osteopontin, whereas the 30N fragment contains amino acids 17-169. The 10C fragment contains the C-terminal domain of osteopontin, amino acids 170-317.
Recombinant osteopontin and its functional fragments were assayed for their ability to inhibit ectopic calcification of human smooth muscle cells (HSMC) either prior to or following phosphorylation by casein kinase II. The amount of phosphate incorporated into osteopontin (OPN) and its fragments achieved by casein kinase II phosphorylation is shown in FIG. 5b.

[2] = tested on: bovine aortic smooth muscle cells (BASMC); assay: Calcium deposition by cultured bovine aortic smooth muscle cells in calcification medium; type: cell-based; settings: for inhibition of calcium deposition (in words): equimolar concentrations as were effective for osteopontin
Protocol: In order to examine calcification by cultured BASMC smooth muscle cells, calcification was induced by the method described by Shioi et al., Arterioscler Thromb Vasc Biol., 15:2003-2009 (1995), which is incorporated herein by reference. Briefly, BASMC were cultured in growth medium for 4 days, and then switched to calcification medium (DMEM (high glucose, 4.5 g/L) containing 15% FBS and 10 mM sodium pyruvate in the presence of 10 mM of β-glycerophosphate (unless otherwise stated), 10^-7 M insulin, and 50 μg/ml of ascorbic acid, supplemented with 100 U/ml of penicillin and 100 μg/ml of streptomycin) for 10 days. The medium was replaced with fresh medium twice a week. In the time course experiments, the beginning day of culture in calcification medium was defined as day 0.
as §1
To examine the effect of osteopontin on BASMC-mediated calcification in vitro, soluble osteopontin or vehicle alone (0.1 mM sodium citrate) was added to the calcifying BASMC cultures. […] In contrast, vehicle alone had no effect (FIG. 2a).
To exclude the possibility that contaminants in the osteopontin preparation were responsible for the observed inhibitory effect, immunodepletion experiments were performed. Medium containing 10 μg/ml osteopontin was mixed with […] anti-osteopontin (OP-199) or normal goat IgG, prepared by the method described by Liaw et al., supra (1994) and incubated for 1 hr at room temperature. 250 mg protein-A-sepharose was added and incubated for 1 hr at room temperature. The antibody-protein A sepharose complexes were removed by centrifugation, and the remaining supernatant diluted twenty-fold for use in the calcification studies. Unpaired Student's t test was employed to compare groups and a probability value (p) value less than 0.05 was considered significant.

alkaline phosphatase = biological target: T1, alkaline phosphatase (Bos taurus, UniProt P09487); assay: Cellular alkaline phosphatase activity of BASMC cultures; type: cell-based, bovine; settings: cells in calcification medium
T1 construct: cellular proteins were solubilized with 1% Triton X-100 in 0.9% NaCl and centrifuged; endogenous in cells; host or cells: BASMC (bovine aortic smooth muscle cells), detergent lysate supernatant
T1 sequence (P09487 18-499): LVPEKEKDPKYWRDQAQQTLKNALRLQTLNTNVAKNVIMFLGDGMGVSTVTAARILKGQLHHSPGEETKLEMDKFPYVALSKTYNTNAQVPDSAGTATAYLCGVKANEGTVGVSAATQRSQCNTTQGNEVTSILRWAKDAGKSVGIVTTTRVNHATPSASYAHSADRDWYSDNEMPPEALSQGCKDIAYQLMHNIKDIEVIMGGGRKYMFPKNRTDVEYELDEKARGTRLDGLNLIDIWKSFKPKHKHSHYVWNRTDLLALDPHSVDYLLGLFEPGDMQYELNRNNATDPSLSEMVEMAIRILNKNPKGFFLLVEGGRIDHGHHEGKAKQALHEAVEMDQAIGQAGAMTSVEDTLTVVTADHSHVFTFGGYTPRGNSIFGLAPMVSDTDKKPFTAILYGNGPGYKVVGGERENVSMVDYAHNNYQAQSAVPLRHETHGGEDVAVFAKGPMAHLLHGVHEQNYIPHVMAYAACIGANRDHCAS
Protocol: For cellular alkaline phosphatase activity measurements, cells were cultured in calcification medium in the presence of various concentrations of osteopontin. Cells were washed three times with PBS and cellular proteins were solubilized with 1% Triton X-100 in 0.9% NaCl and centrifuged. Supernatants were assayed for alkaline phosphatase activity by the method described by Bessey et al., J. Biol. Chem. 164:321-329 (1946), which is incorporated herein by reference. One unit was defined as the activity producing 1 nmol of p-nitrophenol within 1 minute. Protein concentrations were determined with a Bio-Rad protein assay kit (Bio-Rad). The data were normalized to the protein content of the cell layer.

BASMC = assay: Phosphorus concentration in BASMC culture medium; type: cell-based, bovine; settings: BASMC calcification medium
Protocol: as §1

## O=P(O)(O)O [inorganic phosphate]
[1]; 2 mM inorganic phosphate, day 9, mean +/-SEM
  calcium deposition: 210.3+/−2.4 μg/mg protein

## c1ccc([C@H]2CN3CCSC3=N2)cc1 [levamisole, reference compound]
[2]; Bos taurus, BASMC cultures in calcification medium, read-out: half-maximal inhibition of calcium deposition
  IC50: 0.05 mM
[2]; levamisole versus vehicle
  calcium deposition in BASMC cultures (in words): dose-dependently inhibited
Alkaline phosphatase
  alkaline phosphatase activity of BASMC cultures (in words): dose-dependently inhibited
BASMC
  phosphorus concentration of the culture medium (in words): reduced

## O=P(O)(O)OC(CO)CO [β-glycerophosphate]
[2]; BASMC, initial concentration of β-glycerophosphate in medium, read-out: concentration giving half-maximal calcium deposition
  EC50: ~4 mM

## OPN: full-length human recombinant osteopontin prepared as a His-tagged protein; tested with or without casein kinase II phosphorylation
[1]; 0.1 μg/ml to 5.0 μg/ml
  inhibition of ectopic calcification, dose relation (in words): dose-dependent
[1]; after addition to HSMC
  time to significantly reduced calcium deposition: ≤ 60 min
[1]; by 90 minutes following addition
  inhibition of calcification: approximately 50%
[1]; non-phosphorylated forms
  calcium deposition into HSMC matrix (in words): do not significantly affect
[1]; phosphorylated by casein kinase II, 15 nM
  HSMC calcification (in words): able to inhibit HSMC calcification
[1]; phosphorylated protein dephosphorylated with alkaline phosphatase (ALP)
  HSMC calcification (in words): reverses this inhibitory ability
[1]; protein phosphorylated by casein kinase II
  calcium deposition into HSMC matrix (in words): reduced to basal levels

## fibronectin: bovine fibronectin (TELIOS), RGD-containing extracellular matrix molecule [reference compound]
[2]
  inhibition of calcium deposition (in words): unable to inhibit calcium deposition

## osteopontin: Rat osteopontin purified from the conditioned medium of rat neonatal smooth muscle cell cultures, >95% pure
[2]; 0.5 ug/ml added on day 7 after start of mineralization, read at day 10
  inhibition of BASMC culture calcification: 50%
[2]; 0.5 ug/ml in medium
  fold inhibition of calcification versus vehicle: 18 fold
[2]; 0.5 μg/ml, 10 days
  inhibition of calcification: approximately 90%
[2]; 0.5 ug/ml, no immunodepletion
  calcium deposition in cell layer: 0.33 ± 0.06 µmol/mg
[2]; 5 μg/ml, 10 days
  inhibition of calcification (in words): almost completely inhibited
[2]; 0.05, 0.5 and 5 μg/ml, assessed at 10 days
  calcification of BASMC (in words): dose-dependently inhibited
[2]; medium supplemented with increasing calcium, 10 days
  dependence of inhibitory effect on mineralization on calcium (in words): calcium dependent
[2]; osteopontin solution immunodepleted with anti-osteopontin antibody (OP-199)
  calcium deposition in cell layer: 2.60 ± 0.43 µmol/mg
[2]; osteopontin solution treated with normal goat IgG
  calcium deposition in cell layer: 0.49 ± 0.10 µmol/mg
Alkaline phosphatase
  alkaline phosphatase activity of BASMC cultures (in words): did not affect
BASMC
  phosphorus concentration of the culture medium (in words): did not reduce

## vitronectin [reference compound]
[2]
  inhibition of calcium deposition (in words): unable to inhibit calcium deposition
